The numbers were not newly measured in patent US20130029422A1, “Composite Substrate for 3D Cell Culture” (priority 2011, published 2013), which cites them from elsewhere.

The conditions of this data set: during culture of breast cancer cells.

Consider estrogen, for which the “extraction from cell culture medium by PDMS-based cell culture articles” value is “extract estrogen from cell culture medium”.
